Measurements taken from paper PMC8311653, “Design, Synthesis, In Vitro and In Vivo Characterization of Selective NKCC1 Inhibitors for the Treatment of Core Symptoms in Down Syndrome” (Journal of Medicinal Chemistry, 2021).

What was measured:
Assay type in all cases: in vivo, mouse
Ts65Dn mice [1] = assay: Contextual fear-conditioning (CFC) test; details: ip 0.6 mg kg-1 daily, chronic, re-exposure 24 h after conditioning
Method: (§1) A veterinarian was employed to maintain the health and comfort of the animals. Mice were housed in filtered cages in a temperature-controlled room with a 12:12 h dark/light cycle and with ad libitum access to water and food. All efforts were made to minimize animal suffering and use the lowest possible number of animals required to produce statistical relevant results, according to the “3Rs concept”. In this study, we used Ts65Dn mice maintained in their original genetic background[57] by crossing (more than 40 times) Ts65Dn female to C57BL/6JEi × C3SnHeSnJ (B6EiC3) F1 males (Jackson Laboratories). Ts65Dn mice were genotyped by PCR as previously described.[58] Only males were used for behavioral experiments. Ts65Dn and controls were randomly assigned to vehicle groups (2% DMSO in saline), bumetanide (Sigma, 0.6 mg kg^–1 body weight), or 40 (0.6 mg kg^–1 body weight) and treated daily for ∼21 days by intraperitoneal injection (i.p.). On the day of behavioral testing, injection was performed 1 h before the task began.
Ts65Dn male mice (8–16 weeks old) were tested after 1 week of treatment with vehicle or 40 (0.6 mg kg^–1 i.p.). The battery of tests was run over a total period of ∼14 days (four behavioral tests with the following order Open Field, NOR, T-maze, and CFC). […] The tasks were video-recorded and then analyzed manually by a blind operator.

Ts65Dn mice [2] = assay: Open field test (locomotor activity); details: ip 0.6 mg kg-1 daily
Method: All animal procedures were approved by IIT licensing in compliance with the Italian Ministry of Health (D.Lgs 26/2014) and EU guidelines (Directive 2010/63/EU). A veterinarian was employed to maintain the health and comfort of the animals. Mice were housed in filtered cages in a temperature-controlled room with a 12:12 h dark/light cycle and with ad libitum access to water and food. All efforts were made to minimize animal suffering and use the lowest possible number of animals required to produce statistical relevant results, according to the “3Rs concept”. In this study, we used Ts65Dn mice maintained in their original genetic background[57] by crossing (more than 40 times) Ts65Dn female to C57BL/6JEi × C3SnHeSnJ (B6EiC3) F1 males (Jackson Laboratories). Ts65Dn mice were genotyped by PCR as previously described.[58] Only males were used for behavioral experiments. […]
Ts65Dn male mice (8–16 weeks old) were tested after 1 week of treatment with vehicle or 40 (0.6 mg kg^–1 i.p.). […] The tasks were video-recorded and then analyzed manually by a blind operator. […] The alternation score was calculated as the percentage of correct choices (i.e., left–right or right–left) over the total number of the 10 possible alternations. […]

[3] = General health and body weight during chronic treatment; details: 3 weeks of daily treatment, ip 0.6 mg kg-1; WT and Ts65Dn mice
Method: as §1

Question: What does the source list for `CN(C)S(=O)(=O)c1cc(C(=O)O)c(O)cc1NCCCCCCCC(F)(F)F` [Compound 40, 5-(N,N-Dimethylsulfamoyl)-2-hydroxy-4-((8,8,8-trifluorooctyl)amino)benzoic Acid]?
Answer: associative memory in the CFC test (freezing response) (Ts65Dn mice [1]): completely restored; hyperactivity in open field (distance traveled and average walking speed) (Ts65Dn mice [2]): rescued also the hyperactivity; animal body weight [3]: did not affect the animal body weight measures; general health (daily hands-on examination) [3]: did not affect the general health
